Measured values as given in patent US20220264924A1, “METHODS AND COMPOSITIONS FOR IMPROVED TASTE QUALITY” (ALMENDRA PTE LTD, priority 2019, published 2022).
“And” between values parts separate entries of the source, which are not always exact repeats. Equal values may be shown once.

Columns and labels:
[1] = tested on: human subject (sensory testing); conditions: cited from earlier work; for sweetness potency, times higher than sucrose: relative to sucrose (Tanaka 1987; Phillips 1989); for sweetness potency, times more potent than sucrose: sensory evaluations, relative to sucrose (Crammer and Ikan 1986)
[2] = tested on: human subject (sensory testing); assay: Sensory test: taste modulator effect on mouthfeel with MSG, varied MgCl2/CaCl2 (Example 4); format: in vivo; conditions: 0-15 scale, 12 mM MSG Stock Solution
Procedure: (§1) Representative formulations within the scope of the disclosed formulations were prepared and subjected to sensory testing by the methods described above in the section entitled Testing Methodology, where formulations were rated on a 0-15 scales for the Taste Attributes: Umami Intensity (UI), Saltiness Intensity (SaI), Sourness Intensity (SoI), Bitterness Intensity (BI), Astringency Intensity (AI), and Mouthfeel Intensity (MF). In sensory test sessions, the number of samples evaluated was limited to four. In the initial phase of formulation screening, testing was carried out in triplicate with a single subject extensively experienced in the technique of flavor profile analysis.
(§2) The sensory protocol was as follows: • 1. Scramble ambient temperature samples so that each test solution is an unknown sample for sensory testing. • 2. Rinse mouth with 15 mL water while swishing vigorously followed by expectoration. • 3. Take 15 mL of the sample into the mouth and swish around vigorously for 15 sec scaling Umami Intensity (U), Sourness Intensity (So), Saltiness Intensity (Sa), Bitterness Intensity (B), Mouthfeel Intensity (MF) and Astringency Intensity (A) on 0-15 scales during this period and recording them in a table. • 4. Expectorate sample, rinse mouth vigorously with 15 mL water and expectorate at 15 sec. • 5. Note any change in sensory perceptions over the next 2 min and record observations in a table. • 6. Rinse mouth with 15 mL water with vigorous agitation in the mouth for 15 sec and expectorate. • 7. Wait a minimum of 15 min and repeat with next sample. • 8. Break sample code to identify samples.
This study assessed the effects of a disclosed taste modulation formulation on umami taste and other sensory perceptions as described above for the test method, i.e., Umami Intensity (UI), Sourness Intensity (SoI), Saltiness Intensity (SaI), Bitterness Intensity (BI), Mouthfeel Intensity (MF) and Astringency Intensity (AI).
The sensory protocol was as described above in Example 2.
Briefly, a MSG Stock Solution of 12 mM MSG ([…]) was prepared and 100 mL portions of it were added to four 250 mL plastic-capped glass bottles. Sample preparation was completed as follows:
Eight independent trials were carried out and the average results are summarized below in Table 3.

[3] = tested on: human subject (sensory testing); assay: Sensory test: taste modulator effect on umami taste of MSG (Example 2); format: in vivo; conditions: 0-15 scale; average of three trials; MSG 12 mM
Procedure: as §1
This study assessed the effect of a disclosed taste modulation formulation on umami taste and other sensory perceptions as described above for the test method, i.e., Umami Intensity (UI), Sourness Intensity (SoI), Saltiness Intensity (SaI), Bitterness Intensity (BI), Mouthfeel Intensity (MF) and Astringency Intensity (AI).
as §2
Briefly, a stock solution of 10 mM KCl (746 mg/L)/3 mM MgCl2.6H2O (610 mg/L)/3 mM CaCl2 (333 mg/L) in 1.00 L water was prepared in a 1 L E-flask, stirring to full dissolution. 100 mL portions of the mineral salt solution were then transferred to two 250 mL plastic-capped glass bottles and 100 mL portions of water were added to the other two 250 mL plastic-capped glass bottles. Sample completion was carried out by addition of MSG as follows for Sample Nos. 1-4.
Three independent trials were carried out and the data are summarized below in Table 1, with individual results from each trial and average of the three trials as indicated.

[4] = tested on: human subject (sensory testing); assay: Sweetness Linger of standards in the sensory testing methodology; format: in vivo; conditions: perceived sweetness intensity @ 120 sec; standards in water: 10% Sucrose, 500 PPM REBA
From the text: In various aspects, the present disclosure pertains to methods of testing the disclosed sweetener compositions, e.g., a sensory methodology or method for sweetener evaluation. In a particular aspect, the sensory methodology used is known as a “Flavor Profile Analysis” as has been previously described (see: B. T. Carr, S. D. Pecore, K. M. Gibes and G. E. DuBois, “Sensory Methods for Sweetener Evaluation”, Chapter 11 In Flavor Measurement, C. T. Ho and C. H. Manley, Eds., Marcel Dekker, New York, N.Y., 1993). The full set of sensory parameters that are assessed in the sensory testing method are: (a) Sweetness Intensity (which can be abbreviated in tables herein as “S”); (b) Sourness Intensity ((which can be abbreviated in tables herein as “So”); (c) Saltiness Intensity (which can be abbreviated in tables herein as “Sa”); (d) Bitterness Intensity (which can be abbreviated in tables herein as “B”); (e) Body/Mouthfeel Intensity (which can be abbreviated in tables herein as “B/MF”); (f) Astringency Intensity (which can be abbreviated in tables herein as “A”); (g) Sweetness Linger (which can be abbreviated in tables herein as “SL”); (h) Sweetness Appearance Time (which can be abbreviated in tables herein as “AT”); and (i) Sweetness Desensitization (which can be abbreviated in tables herein as “SD”). […]

[5] = tested on: human subject (sensory testing); conditions: R in Sucrose Equivalents of Sweetness; C in % (w/v); linear fit; cited from earlier work
[6] = water (Kinghorn 2002); cited from earlier work

C=C1C[C@@]23CC[C@H]4[C@@](C)(CCC[C@@]4(C)C(=O)O[C@@H]4O[C@H](CO)[C@@H](O)[C@H](O)[C@H]4O)[C@@H]2CC[C@]1(O[C@@H]1O[C@H](CO)[C@@H](O)[C@H](O)[C@H]1O[C@@H]1O[C@@H](C)[C@H](O)[C@@H](O)[C@H]1O)C3 [Dulcoside A]
sweetness potency, times higher than sucrose [1]: 30 times

N[C@@H](CCC(=O)[O-])C(=O)O.O.[Na+] [MSG Control 1, MSG-H2O]
AI (Astringency Intensity) ([2]; average of eight trials): 0.0 | BI (Bitterness Intensity) ([2]; average of eight trials): 0.0 | MF (Mouthfeel Intensity) ([2]; average of eight trials): 1.5 | Sal (Saltiness Intensity) ([2]; average of eight trials): 2.0 | Sol (Sourness Intensity) ([2]; average of eight trials): 0.0 | UI (Umami Intensity) ([2]; average of eight trials): 5.0 | MF rating, Mean ([2]; mean of eight trials): 1.50 | MF rating, individual trials ([2]; trials 1-8): 1 (4×) and 2 (4×) | AI (Astringency Intensity) Ave [3]: 0.0 | BI (Bitterness Intensity) Ave [3]: 3.0 | MF (Mouthfeel Intensity) Ave [3]: 3.3 | Sal (Saltiness Intensity) Ave [3]: 2.0 | Sol (Sourness Intensity) Ave [3]: 0.0 | UI (Umami Intensity) Ave [3]: 4.7

N[C@@H](CCC(=O)[O-])C(=O)O.O.[Na+] [MSG Control 2, MSG-H2O]
AI (Astringency Intensity) Ave [3]: 0.0 | BI (Bitterness Intensity) Ave [3]: 3.0 | MF (Mouthfeel Intensity) Ave [3]: 3.0 | Sal (Saltiness Intensity) Ave [3]: 2.0 | Sol (Sourness Intensity) Ave [3]: 0.0 | UI (Umami Intensity) Ave [3]: 4.7

C=C1C[C@@]23CC[C@H]4[C@@](C)(CCC[C@@]4(C)C(=O)O[C@@H]4O[C@H](CO)[C@@H](O)[C@H](O)[C@H]4O)[C@@H]2CC[C@]1(O[C@@H]1O[C@H](CO)[C@@H](O)[C@H](O[C@@H]2O[C@H](CO)[C@@H](O)[C@H](O)[C@H]2O)[C@H]1O[C@@H]1O[C@H](CO)[C@@H](O)[C@H](O)[C@H]1O)C3 [Rebaudioside A]
sweetness potency, times more potent than sucrose [1]: 350-450 times | SL (Sweetness Linger) [4]: 5

C=C1C[C@@]23CC[C@H]4[C@@](C)(CCC[C@@]4(C)C(=O)O[C@@H]4O[C@H](CO)[C@@H](O)[C@H](O)[C@H]4O)[C@@H]2CC[C@]1(O[C@@H]1O[C@H](CO)[C@@H](O)[C@H](O)[C@H]1O[C@@H]1O[C@H](CO)[C@@H](O)[C@H](O)[C@H]1O)C3 [Stevioside]
sweetness potency, times higher than sucrose [1]: 110-270 times

OC[C@H]1O[C@@](CO)(O[C@H]2O[C@H](CO)[C@@H](O)[C@H](O)[C@H]2O)[C@@H](O)[C@@H]1O [Sucrose]
C/R Function [5]: R = C | SL (Sweetness Linger) [4]: 0

C[C@H](CC[C@@H](O[C@@H]1O[C@H](CO[C@@H]2O[C@H](CO)[C@@H](O)[C@H](O)[C@H]2O)[C@@H](O)[C@H](O)[C@H]1O[C@@H]1O[C@H](CO)[C@@H](O)[C@H](O)[C@H]1O)C(C)(C)O)[C@H]1CC[C@@]2(C)[C@@H]3CC=C4[C@@H](CC[C@H](O[C@@H]5O[C@H](CO[C@@H]6O[C@H](CO)[C@@H](O)[C@H](O)[C@H]6O)[C@@H](O)[C@H](O)[C@H]5O)C4(C)C)[C@]3(C)[C@H](O)C[C@]12C [mogroside V]
sweetness, times cane sugar ([1]; relative to cane sugar on a weight basis, estimated): approximately 250 times

Rebaudioside B [REBB]
water solubility [6]: about 0.1% | sweetness potency, times more potent than sucrose [1]: 300-350 times

Rebaudioside C
sweetness potency, times higher than sucrose [1]: 40-60 times
